Read-outs that look alike come from different tables or passages of the source.
Columns and labels:
H1299 cells [1] = test: Cell viability assay (SRB), H1299; assay type: cell-based, human
Procedure: (§3) Cells were seeded at a density of 6.0×10^3 cells/well in 96-well plates. […] The inhibitory effects of the antagonists on cell growth were determined using SRB assay, as described previously [37]. […] Each experiment was performed in six replicates and repeated for three times. Cells treated with solvent (DMSO) were used as a control, with viability set at 100%.

H1299 cells [2] = test: Exogenous ACh combined with R2HBJJ, cell viability (SRB)
Procedure: To determine the correlation between cholinergic signal pathways and R2HBJJ-induced growth inhibition, exogenous AChR agonist ACh was used. The effects of ACh on the growth of H1299 and on R2HBJJ-induced growth inhibition were observed.
Cells were seeded at a density of 6.0×10^3 cells/well in 96-well plates. After overnight incubation, the cells were treated with R2HBJJ (1.6–100 µM) or other antagonists (0.3–100 µM) for 72 h. The inhibitory effects of the antagonists on cell growth were determined using SRB assay, as described previously. For the combination administration, the agonist was added 1 h before R2HBJJ. Each experiment was performed in six replicates and repeated for three times. Cells treated with solvent (DMSO) were used as a control, with viability set at 100%.
(§1) GraphPad Prism 5 software was used for statistical analysis. For competition binding and Guinea-pig tracheal contraction assay, the IC50 values were determined by using the non-linear curve-fitting program. The inhibition constants (Ki values) were calculated by using the Cheng-Prusoff equation. For the experiments of exogenous ACh combined with R2HBJJ, two-way ANOVA was used to compare the interaction of two treatment factors. Post-hoc analyses were performed with Bonferroni's tests for comparisons to controls. For the cell viability assay after siRNA transfection, one-way ANOVA followed by Dunnett's t test was used. A P value of less than 0.05 was considered statistically significant.

[3] = molecular target: T1, human muscarinic receptor M4 (Homo sapiens, UniProt P08173); test: biochemical; assay type: binding; conditions: mean ± SD
T1 construct: purchased Perkin Elmer Life and Analytical Sciences
T1 sequence (P08173 whole entry): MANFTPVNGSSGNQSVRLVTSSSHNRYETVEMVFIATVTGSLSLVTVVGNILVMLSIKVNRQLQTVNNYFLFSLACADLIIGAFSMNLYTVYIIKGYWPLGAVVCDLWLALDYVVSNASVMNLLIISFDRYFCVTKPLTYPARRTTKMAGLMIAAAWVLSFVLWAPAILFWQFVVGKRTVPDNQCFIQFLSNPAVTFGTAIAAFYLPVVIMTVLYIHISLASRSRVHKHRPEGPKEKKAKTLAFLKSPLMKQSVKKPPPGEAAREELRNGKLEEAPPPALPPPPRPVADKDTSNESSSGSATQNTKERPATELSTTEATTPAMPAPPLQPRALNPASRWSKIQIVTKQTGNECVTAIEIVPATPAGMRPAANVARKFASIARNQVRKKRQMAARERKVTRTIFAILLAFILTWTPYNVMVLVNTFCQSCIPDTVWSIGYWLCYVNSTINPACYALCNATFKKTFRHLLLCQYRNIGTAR
Procedure: (§2) Bound radioligand was separated from free by rapid vacuum filtration through GF/C glass fiber filters (Whatman). The filters were rinsed three times with ice cold PBS. After being dried, the fibers were placed in scintillation vials with 0.5 ml of BetaPlate Scint. Radioactivity trapped on the filters was quantified by a BECKMAN Beta counter. The assay was repeated three times with duplicate samples.
as §1, with “used.” for “used. A P value of less than 0.05 was considered statistically significant.”

A549 cells = test: Cell viability assay (SRB), A549; assay type: cell-based; conditions: Homo sapiens, read-out: 50% growth-inhibitory concentration (GI50), A549, 72 h, 100 µM highest concentration tested
Procedure: as §3

H460 cells = test: Cell viability assay (SRB), H460; assay type: cell-based; conditions: Homo sapiens, NCI-H460, read-out: 50% growth-inhibitory concentration (GI50), H460, 72 h
Procedure: as §3

[4] = molecular target: T2, human muscarinic receptor M5 (Homo sapiens, UniProt P08912); test: Radioligand binding assay with [3H]NMS (saturation and competition), M5; conditions: mean ± SD
T2 construct: purchased Perkin Elmer Life and Analytical Sciences
T2 sequence (P08912 whole entry): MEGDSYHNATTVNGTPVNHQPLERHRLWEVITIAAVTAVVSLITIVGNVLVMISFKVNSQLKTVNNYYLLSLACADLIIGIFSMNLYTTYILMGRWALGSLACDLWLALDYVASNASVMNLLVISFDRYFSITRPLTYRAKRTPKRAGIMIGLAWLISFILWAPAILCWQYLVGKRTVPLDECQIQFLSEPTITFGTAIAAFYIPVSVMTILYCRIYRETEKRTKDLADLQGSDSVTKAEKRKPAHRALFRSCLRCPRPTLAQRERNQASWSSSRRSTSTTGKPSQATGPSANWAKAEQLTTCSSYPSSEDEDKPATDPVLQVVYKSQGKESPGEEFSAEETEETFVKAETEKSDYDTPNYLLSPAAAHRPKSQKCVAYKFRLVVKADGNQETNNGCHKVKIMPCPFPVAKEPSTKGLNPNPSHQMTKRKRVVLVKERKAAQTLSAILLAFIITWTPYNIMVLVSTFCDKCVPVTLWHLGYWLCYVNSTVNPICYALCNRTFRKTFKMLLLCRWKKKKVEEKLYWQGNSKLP
Procedure: as §2, §1

[5] = molecular target: human muscarinic receptor M3 (Homo sapiens, UniProt P20309); test: biochemical
human muscarinic receptor M3, sequence (P20309 whole entry): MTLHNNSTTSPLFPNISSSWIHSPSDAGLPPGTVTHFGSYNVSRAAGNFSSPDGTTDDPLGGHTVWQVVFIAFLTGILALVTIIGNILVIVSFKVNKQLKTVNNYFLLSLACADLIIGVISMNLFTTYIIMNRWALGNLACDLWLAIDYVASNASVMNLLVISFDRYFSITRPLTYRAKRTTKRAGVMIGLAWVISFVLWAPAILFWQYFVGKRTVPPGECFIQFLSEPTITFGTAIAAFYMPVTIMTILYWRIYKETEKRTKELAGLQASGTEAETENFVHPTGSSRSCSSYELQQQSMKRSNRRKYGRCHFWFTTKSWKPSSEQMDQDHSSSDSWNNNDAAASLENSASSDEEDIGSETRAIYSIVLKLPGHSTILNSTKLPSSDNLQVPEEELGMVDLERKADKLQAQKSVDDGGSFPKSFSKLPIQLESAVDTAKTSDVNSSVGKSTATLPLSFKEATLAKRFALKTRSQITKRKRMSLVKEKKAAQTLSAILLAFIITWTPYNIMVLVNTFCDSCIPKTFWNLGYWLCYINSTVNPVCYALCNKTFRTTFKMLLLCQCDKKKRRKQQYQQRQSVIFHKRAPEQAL
Procedure: as §2, §1

[6] = molecular target: human muscarinic receptor M1 (Homo sapiens, UniProt P11229); test: biochemical
human muscarinic receptor M1, sequence (P11229 whole entry): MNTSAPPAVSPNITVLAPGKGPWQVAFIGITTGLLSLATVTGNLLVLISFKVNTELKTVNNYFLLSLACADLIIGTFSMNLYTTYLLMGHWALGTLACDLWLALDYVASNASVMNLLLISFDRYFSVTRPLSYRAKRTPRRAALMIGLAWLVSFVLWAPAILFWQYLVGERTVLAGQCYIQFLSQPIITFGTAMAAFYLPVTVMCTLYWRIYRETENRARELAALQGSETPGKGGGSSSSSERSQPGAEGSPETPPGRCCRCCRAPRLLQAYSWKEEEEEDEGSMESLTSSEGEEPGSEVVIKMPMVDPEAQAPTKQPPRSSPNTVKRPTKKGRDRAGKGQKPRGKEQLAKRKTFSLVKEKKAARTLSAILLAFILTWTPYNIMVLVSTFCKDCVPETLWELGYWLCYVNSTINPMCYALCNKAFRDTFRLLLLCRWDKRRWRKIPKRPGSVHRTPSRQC
Procedure: as §2, §1

BEP2D cells = test: Cell viability assay (SRB), BEP2D; assay type: cell-based; conditions: Homo sapiens, read-out: 50% growth-inhibitory concentration (GI50), 72 h, 100 µM highest concentration tested
Procedure: as §3

H1299 cells [7] = test: Cell cycle analysis by flow cytometry, H1299; assay type: cell-based, human; conditions: H1299, 20 µM
Procedure: Alterations in cell cycle were determined by using flow cytometric assay. Cells were seeded at a density of 1×10^5 cells/well in six-well plates and synchronized by plating in RPMI-1640 containing 1% FBS for 24 h. For time-dependent response, cells were incubated in 2 ml fresh RPMI-1640 containing 10% FBS with 20 µM R2HBJJ for 24, 48, 72 h. For concentration-dependent response, cells were incubated for 48 h with R2HBJJ at final concentrations of 2.5, 5, 10, 15, 20 µM in 2 ml fresh RPMI-1640 containing 10% FBS. Fresh media added in the control well simultaneously. After treatment, the cells were harvested with trypsin, washed once with PBS, and then fixed in 70% ethanol overnight at 4°C. Before flow cytometry analysis, cells were stained with 200 µg/ml Ribonuclease A and 50 µg/ml propidium iodide (Sigma) for 30 min at room temperature away from light. 1×10^4 cells per sample were analyzed using a FACSCalibur flow cytometer (BD Biosciences). Data were evaluated using Modfit software.

[8] = molecular target: T3, human muscarinic receptor M2 (Homo sapiens, UniProt P08172); test: Radioligand binding assay with [3H]NMS (saturation and competition), M2; conditions: mean ± SD
T3 construct: purchased Perkin Elmer Life and Analytical Sciences
T3 sequence (P08172 whole entry): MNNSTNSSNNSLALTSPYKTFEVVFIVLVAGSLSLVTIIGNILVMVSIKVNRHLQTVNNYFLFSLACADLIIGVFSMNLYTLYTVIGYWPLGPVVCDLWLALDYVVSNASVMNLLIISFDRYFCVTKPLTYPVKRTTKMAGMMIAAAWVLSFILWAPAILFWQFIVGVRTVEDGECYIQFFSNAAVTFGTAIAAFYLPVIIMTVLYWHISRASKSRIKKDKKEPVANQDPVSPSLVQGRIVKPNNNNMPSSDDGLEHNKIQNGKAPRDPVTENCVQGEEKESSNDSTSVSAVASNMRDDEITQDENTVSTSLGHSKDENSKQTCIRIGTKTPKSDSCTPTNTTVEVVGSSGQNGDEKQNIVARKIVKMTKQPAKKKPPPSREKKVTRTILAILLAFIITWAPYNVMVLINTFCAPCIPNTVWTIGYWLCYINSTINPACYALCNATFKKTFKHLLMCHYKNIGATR
Procedure: as §2, §1

H157 cells = test: Cell viability assay (SRB), H157; assay type: cell-based; conditions: Homo sapiens, NCI-H157, read-out: 50% growth-inhibitory concentration (GI50), H157, 72 h
Procedure: as §3

H1299 cells [9] = test: cells
Procedure: as §1

[10] = tested on: cyclin D1-CDK4/6-Rb in H1299 cells; test: Western blot of cell cycle regulatory proteins and Rb phosphorylation; assay type: cell-based, human
Procedure: Cell cycle transition from G1 to S is mainly activated by two different kinase composites: cyclin D1/CDK4, 6, and cyclin E, A/CDK2. Rb is the primary substrate of cyclin D-dependent kinase and plays a key role in the network of cell cycle regulation. To investigate the underlying molecular mechanisms of G0/G1 arrest induced by R2HBJJ, the time-dependent changes of several related cell cycle regulatory molecules were evaluated after treatment with 20 µM R2HBJJ in H1299 cells by using western blot analysis. […] The decrease of Rb phosphorylated at the position of Ser^807/811 occurred as early as 3 h after treatment and before apparent cell viability change. […] Further we evaluated the concentration response of Rb phosphorylation reduced after treatment with R2HBJJ for 48 h (Fig. 8B).
Cells were harvested and subjected to lysis in the buffer X (50 mM Tris, 270 mM NaCl, 1% Triton X-100, pH 7.4). Equal amounts of lysates (30 µg) were separated on 10% SDS-PAGE and then transferred to polyvinylidene difluoride membranes (Millipore). Membranes were then blocked with PBS buffer containing 5% low fat milk and 0.1% Tween 20 (PBST) for 1 h at room temperature and then incubated with primary antibodies (1∶1000–2000) overnight at 4°C. After being washed three times with PBST, membranes were incubated with peroxidase-conjugated secondary antibodies (1∶5000) for 1 h at room temperature. The membranes were washed with PBST again and developed with a pro-light HRP chemiluminescence detection kit (TianGen Biotech, China). β-actin was used as a loading control.

[11] = H1299, 72 h, SRB, antagonists 0.3–100 µM, no exogenous agonist
[12] = Homo sapiens, NCI-H1299, 72 h, read-out: cell viability
[13] = 2.4 nM [3H]NMS, n = 3, read-out: IC50 inhibiting [3H]NMS binding
[14] = Cheng-Prusoff, n = 3, read-out: Ki inhibiting [3H]NMS binding

O[C@@](CO[C@H]1CN2CCC1CC2)(c1ccccc1)C1CCCC1 [R2-PHC]
inhibitory potency relative to darifenacin (H1299 cells [1]; H1299, 72 h, SRB): about 3.7 fold
effect on H1299 cell proliferation (H1299 cells [1]; [11]): significantly inhibited H1299 cell proliferation in a concentration-dependent manner

CNC1(C)C2CCC(C2)C1(C)C (stereo not drawn) [mecamylamine]
effect on H1299 cell proliferation (H1299 cells [1]; [11]): no obvious effects on cell proliferation

CN1[C@@H]2CC[C@H]1C[C@@H](OC(=O)C(CO)c1ccccc1)C2 (stereo partly drawn) [atropine]
effect on H1299 cell proliferation (H1299 cells [1]): no obvious effects on cell proliferation

CCN(CC)CC1CCCCN1CC(=O)N1c2ccccc2C(=O)Nc2cccnc21 (stereo not drawn) [AF-DX116]
effect on H1299 cell proliferation (H1299 cells [1]; [11]): inhibition on cell proliferation at the highest concentration tested

CN1CCN(CC(=O)N2c3ccccc3C(=O)Nc3cccnc32)CC1 [pirenzepine]
effect on H1299 cell proliferation (H1299 cells [1]; [11]): no obvious effects on cell proliferation

NC(=O)C(c1ccccc1)(c1ccccc1)[C@@H]1CCN(CCc2ccc3c(c2)CCO3)C1 [darifenacin]
effect on H1299 cell proliferation (H1299 cells [1]; [11]): significantly inhibited H1299 cell proliferation in a concentration-dependent manner

CC(=O)OCC[N+](C)(C)C [ACh, Acetylcholine, reference compound]
effect of exogenous ACh alone on H1299 cell growth (H1299 cells [2]; ACh 1, 10 and 100 µM, 72 h): no significant effects on H1299 cell growth
viability at 1 µM (H1299 cells [2]; [12]): 102 ± 1.8%
viability at 10 µM (H1299 cells [2]; [12]): 105 ± 2.74%
viability at 100 µM (H1299 cells [2]; [12]): 99 ± 2.72%

Br.CO[C@H]1CC=C2CCN3CCC4=C(CC(=O)OC4)[C@]23C1 [DhβE, Dihydro-β-erythroidine hydrobromide]
effect on H1299 cell proliferation (H1299 cells [1]; [11]): no obvious effects on cell proliferation

O[C@@](CO[C@H]1C[N+]2(C3CC3)CCC1CC2)(c1ccccc1)C1CCCC1 [R2HBJJ]
IC50 [3, 13]: 1.47 nM
Ki [3, 14]: 0.106 nM
inhibitory potency relative to darifenacin (H1299 cells [1]; H1299, 72 h, SRB): about 3.7 fold
effect on H1299 cell proliferation (H1299 cells [1]; [11]): significantly inhibited H1299 cell proliferation in a concentration-dependent manner
GI50 (H1299 cells [1]; Homo sapiens, NCI-H1299, read-out: 50% growth-inhibitory concentration (GI50), H1299, 72 h, SRB): 8500 nM
GI50 (A549 cells): > 100000 nM
GI50 (H460 cells): 8800 nM
IC50 [4, 13]: 1.61 nM
Ki [4, 14]: 0.264 nM
IC50 [5]: 0.38 nM
Ki [5]: 0.0679 nM
IC50 [6]: 0.739 nM
Ki [6]: 0.0786 nM
GI50 (BEP2D cells): > 100000 nM
percentage of G0/G1 phase (H1299 cells [7]; 48 h (Fig. 7B, concentration series), control 39.60%): 70.01%
percentage of G0/G1 phase (H1299 cells [7]; 72 h (Fig. 7A), control 40.35%): 76.60%
percentage of S phase (H1299 cells [7]; 72 h (Fig. 7A), control 46.14%): 15.93%
IC50 [8, 13]: 5.33 nM
Ki [8, 14]: 1.33 nM
GI50 (H157 cells): 28500 nM
viability at 8 µM (H1299 cells [9]; [12]): 83.5%
viability at 16 µM (H1299 cells [9]; [12]): 57.4%
effect on cell growth after M3 siRNA transfection (H1299 cells [9]; M3 siRNA treated H1299 cells, R2HBJJ 8 µM and 16 µM, 72 h): didn't further influence the cell growth
levels of cyclin D1, CDK4 and CDK6 proteins ([10]; H1299, 20 µM, 3–60 h): dramatic down-regulation
levels of cyclin E and CDK2 ([10]; H1299, 20 µM, 3–60 h): remained basically unaltered
phosphorylation of Rb (particularly at Ser807/811) ([10]; H1299, 20 µM, 3–60 h): decreased time-dependently
lowest concentration at which decrease of Rb phosphorylated at Ser807/811 occurred ([10]; H1299, 48 h, 1.25–20 µM tested): 1.25 µM
viability at 10 µM (H1299 cells [2]; Homo sapiens, NCI-H1299, 72 h, read-out: cell viability, R2HBJJ 10 µM, ACh 0 µM, H1299, 72 h): 54.1 ± 3.89%
viability at 20 µM (H1299 cells [2]; Homo sapiens, NCI-H1299, 72 h, read-out: cell viability, R2HBJJ 20 µM, ACh 0 µM, H1299, 72 h): 23.2 ± 2.14%
viability at 10 µM (H1299 cells [2]; Homo sapiens, NCI-H1299, read-out: cell viability, R2HBJJ 10 µM, ACh 1 µM added 1 h before, H1299, 72 h): 55 ± 6.79%
viability at 10 µM (H1299 cells [2]; Homo sapiens, NCI-H1299, read-out: cell viability, R2HBJJ 10 µM, ACh 10 µM added 1 h before, H1299, 72 h): 82.3 ± 5.82%
viability at 10 µM (H1299 cells [2]; Homo sapiens, NCI-H1299, read-out: cell viability, R2HBJJ 10 µM, ACh 100 µM added 1 h before, H1299, 72 h): 91.1 ± 3.65%
viability at 20 µM (H1299 cells [2]; Homo sapiens, NCI-H1299, read-out: cell viability, R2HBJJ 20 µM, ACh 1 µM added 1 h before, H1299, 72 h): 24.1 ± 1.94%
viability at 20 µM (H1299 cells [2]; Homo sapiens, NCI-H1299, read-out: cell viability, R2HBJJ 20 µM, ACh 10 µM added 1 h before, H1299, 72 h): 35.6 ± 4.48%
viability at 20 µM (H1299 cells [2]; Homo sapiens, NCI-H1299, read-out: cell viability, R2HBJJ 20 µM, ACh 100 µM added 1 h before, H1299, 72 h): 58.5 ± 2.83%

α-bungarotoxin [α-bgt]
effect on H1299 cell proliferation (H1299 cells [1]): no obvious effects on cell proliferation
